By melting point is commonly meant the temperature of the solid-liquid transition.

Structures are written as SMILES.

For 89 compounds, melting point results are on record in a melting point compilation (Tetko et al.; mined from patent text by program, amines drawn as free bases though some values may be those of a salt).

Consider `CCCCCCCN(CCC(C)(C)CCSc1nc(-c2ccccc2)c(-c2ccccc2)[nH]1)C(=O)Nc1ccc(F)cc1F`, for which the melting point lay within 138 to 139 °C.

Consider `CC(=O)Nc1cccc(C#Cc2ccc(OC3CN4CCC3CC4)nn2)c1` (centres undefined), for which the melting point was in the range of 132 to 134 °C.

On to `COc1ccc(C(=O)CC2CCCCC2=O)cc1` (centres undefined), for which the melting point was 98 to 99 °C. In the case of `COc1ccc2cc([C@H](C)C(=O)OCC(=O)N(C)CC(=O)OC(C)(C)C)ccc2c1` it was 103 to 104 °C; in that of `CCOC(=O)C=C(C)Oc1ccc(C23CC4CC(CC(C4)C2)C3)cc1`, 97 to 98 °C; in that of `Cc1ccc(Cc2c[nH]c(=S)[nH]c2=O)cn1`, 240 to 241 °C.

Consider `CCOC1CCC2C3CCc4cc(OC)ccc4C3CCC12CC` (centres undefined), for which the melting point fell in the range of 74 to 77 °C. Compound `O=C1Nc2ccccc2N(C(=O)C2CC2)c2cscc21` yielded a melting point of 245 to 247 °C. In the case of `CCOC(=O)CC[C@H](NC(=O)c1ccc2c(c1)CCN2Cc1cnc2nc(N)nc(N)c2n1)C(=O)OCC` it was 168 to 170 °C; in that of `COC(=O)c1cccc2c(=O)c3cccc(I)c3[nH]c12`, 174 to 176 °C; in that of `COc1ccc(CN(C)c2ncnc3c(N4CCOCC4)nc(N4CCC(N(C)C)CC4)nc23)cc1`, 109 to 110 °C.

The compound `O=C(O)c1ccsc1COc1ccc(CCCCO)cc1` gave a melting point of 140 to 141 °C. `CCn1c(=N)c(-c2ccsc2)cc2cnc(Nc3ccccc3)nc21` returned a melting point of 220 to 222 °C. In the case of `Cc1nn(-c2ccccn2)c2nc3ccccc3c(C(N)=O)c12` it was more than 300 °C; in that of `N#CC1CN1C(=O)NC(=O)c1ccccc1` (centres undefined), 144 to 146 °C; in that of `COc1cc(OC)nc(C(=O)c2nscc2C(=O)N(C)c2ccccc2)n1`, 140 to 142 °C. In the case of `Cc1ccc(C(=O)C2=C(O)C(=O)N(c3ccc(C)cn3)C2c2ccc(C(C)C)cc2)cc1` (centres undefined) it was 259 to 261 °C. For `CC(C)(C)c1ccc(-c2nc3ccc([N+](=O)[O-])cc3c(=O)o2)cc1`, the melting point is 159 to 161 °C.

`COc1cc(Nc2c(C#N)cnc3cc(/C=C/CCN4CCN(C)CC4)c(OC)cc23)c(Cl)cc1Cl` returned a melting point of 142 to 143 °C. For `CCC(C)OC(=O)CNC(=O)[C@@H](Cc1ccccc1)CN1CC[C@@](C)(c2cccc(O)c2)[C@@H](C)C1` (some centres undefined) the value was 94 °C; for `c1cc(N2CCNCC2)cnn1`, more than 300 °C.

Turning to `CC(C)(C)OC(=O)c1ncn2c1[C@@H]1CCCN1C(=O)c1c-2cccc1S(C)(=O)=O`, the melting point came out at 244 °C. For `Cc1nc(-c2cnc3[nH]cc(C(=O)N[C@@H](C(=O)N4CC(C#N)C4)C(C)(C)C)c3n2)cn1-c1cc(F)cc(F)c1` the value was 187 to 190 °C. As to `COc1ccc(C=Cc2ccc(C)c(Cl)c2)c(Cl)c1`, the melting point lay within 77 to 79 °C.

`CC(Oc1ccccc1)c1nnc(N)s1` (centres undefined) came in with a melting point of 157 to 167 °C. In the case of `COc1ccc(Nc2cc(-c3ccccc3)nc(Nc3ccc(OC)c(Cl)c3)n2)cc1Cl` it was 250 to 254 °C; in that of `CN1CCN(c2nc(C=C3SC(=S)N(CC(=O)O)C3=O)cs2)CC1`, more than 300 °C. For `CN(C)c1ccc(/C=C/c2c(F)cccc2F)c(N)c1` the value was 97 to 98 °C; for `O=C(CCCCCl)c1c[nH]c2ccccc12`, 165 to 167 °C. `CN(c1cccc2cc(C3=NCC(CC(=O)O)S3)[nH]c12)S(=O)(=O)c1cccs1` (centres undefined) yielded a melting point of 232 to 234 °C. As to `CNC(=O)c1cccc(C)c1Nc1nc(Nc2ccc3c(c2)N(CCOC)C(=O)CCC3)ncc1Cl`, the melting point was 185 to 187 °C. In the case of `O=C(Nc1cccc2cc(CO)cnc12)c1c(Cl)cccc1Cl` it was 224 to 226 °C; in that of `O=C(CS(=O)C(c1ccc(F)cc1)c1ccc(F)cc1)NO` (centres undefined), 90 to 91 °C. In the case of `Cc1nc2c(N)nc3ccccc3c2n1CCCCOCC#Cc1ccccc1` it was 109 to 110 °C; in that of `CCOC(=O)Cn1c(=O)c(-c2ccccc2Cl)cc2cnc(NC3C4CN(Cc5ccccc5)CC43)nc21` (centres undefined), 186 to 188 °C; in that of `CSc1c([N+](=O)[O-])c2cc(Cl)ccc2[nH]c1=O`, 213 °C. For `Cc1oc(-c2ccccc2)nc1CCC(=O)c1ccc(C=CC=O)cc1` the value was 119 to 120 °C. On to `CCOC(=O)c1sc(N)nc1CC`, for which the melting point was 177 to 179 °C. In the case of `Cc1cc(C(C)(C)C)c(O)c2[nH]c(Cc3ccccc3)nc12` it was 226 to 228 °C. For `Cc1ccc2c(c1)C=Cc1sc(C)nc1C2c1cn(CCN2CCCC2)c(=O)[nH]c1=S` (centres undefined) the value was 198 °C. Consider `OC(CSc1nccs1)(Cn1cncn1)c1ccc(Cl)cc1Cl` (centres undefined), for which the melting point is 110 to 111 °C. In the case of `COc1ccc(CCC(=O)O)c(Cl)c1Cl` it was 141 to 143 °C; in that of `O=C1Cc2ccc(F)cc2Sc2cc(F)c(Cl)cc21`, 131 to 133 °C; in that of `O=C(O)Cc1ccc[nH]1`, 83 to 84 °C. For `O=C(CC1CCCCC1)Nc1c(Cl)ccc2nc(CCCCc3nnn[nH]3)ccc12` the value was 192 to 195 °C; for `N#Cc1ccc2c(CCC3CCN(Cc4ccccc4)CC3)noc2c1`, 113 to 114 °C; for `CC(C)(Cn1cnc2c(N)nc3ccccc3c21)C(N)=O`, 287 to 289 °C.

Compound `CS(=O)(=O)c1ccc(-c2nn(Cc3ccc(Cl)cc3Cl)c(=O)cc2-c2ccc(F)cc2)cc1` had a melting point of 212 °C.

The compound `CC(Oc1ccc2nc(NC(=O)NCCN3CCOCC3)sc2c1)c1c(F)ccc(Cl)c1Cl` (centres undefined) had a melting point of 200 °C. For the compound `N#Cc1ccnc(Nc2ccc(-n3nc(C(F)(F)F)cc3C(F)(F)F)cc2)c1`, the melting point lay in the range of 152 to 153 °C.

Compound `COc1cc(OC)nc(Oc2ccc3ncccc3c2C(=O)O)n1` had a melting point of 195 to 198 °C. For `COc1ccc(-n2nc(Sc3cccc(OC)c3)c(C)c(C#N)c2=O)cc1` the value was 143 to 144 °C; for `CCCCc1ncc(C=C2C(=O)NC(=O)N2Cc2ccc(Cl)cc2)n1Cc1ccc(C(=O)O)cc1`, 225 to 227 °C; for `CN1Cc2c(C#CC(C)(C)O)ncn2-c2cccc(Br)c2C1=O`, 207 to 208 °C. As to `O=C(CC1CCCC1)c1c(-c2ccc3cc(O)ccc3c2)oc2ccccc12`, the melting point was in the range of 189 to 190 °C. In the case of `N#CC(=NOCCn1cncn1)C(N)=O` it was 137 °C; in that of `CC(C)(C)C(=O)OCN(c1ccc(CN2CCN(Cc3ccccc3)C(=O)C2=O)cc1)c1ncccn1`, 144 to 146 °C. In the case of `CCC1CCCCN1CCC(=O)Nc1ccc2c(=O)c3ccc(NC(=O)CCN4CCCCC4CC)cc3[nH]c2c1` (centres undefined) it was more than 320 °C; in that of `CC(C)c1ccc(C=O)c(=O)c(O)c1`, 76 °C; in that of `COC(=O)c1cc(C(=O)c2ncc3ccccn23)ccc1NC(=O)c1ccccc1`, 218 °C. In the case of `O=C(c1cccs1)c1cnn2c(-c3cccc(NCc4ccccc4)c3)ccnc12` it was 90 to 92 °C; in that of `COc1ccccc1C(=O)N(C)Cc1cccc(-c2ccc(CC3SC(=O)NC3=O)cc2)c1` (centres undefined), 96 °C. `COCCNC(=O)c1cccc(-c2cccc3cc(Cc4ccc5c(c4)CCO5)sc23)c1` had a melting point of 79 to 80 °C. The compound `CCCC=NNc1cc2c(nn1)CCN(C(=O)c1ccc(-c3ccccc3)cc1)C2` showed a melting point of 260 to 262 °C.

In the case of `CC(O)(C(O)CBr)C(O)CBr` (centres undefined), the melting point was 78 to 80 °C. For `CCc1cc(I)c(CC)cc1I` the value was 68 to 69 °C.

In turn, `O=[N+]([O-])c1ccccc1NCCNc1ccccc1` registered a melting point of 64 to 66 °C. For `CCOC(=O)C(=CNc1cccnc1OC)C(=O)OCC` the value was 65 °C; for `CCCC(O)c1ccc(Cl)c2nc3n(c12)CCCN3c1ccc(Cl)cc1Cl` (centres undefined), 220 to 221 °C.

As for `NC(=O)C1CCc2[nH]c3ccc(OC(F)(F)F)cc3c2C1` (centres undefined), the melting point was 177 to 178 °C. In the case of `Cc1nnc2c(-c3cccc(C(F)(F)F)c3)cncn12` it was 157 to 159 °C; in that of `CC(C)(C)OC(=O)n1ccc2c([N+](=O)[O-])c(NC(=O)COCc3ccccc3)ccc21`, 145 to 146 °C. For the compound `O=C(Cc1ccccc1Cl)Nc1ccc(C(=O)N2CCCCc3sccc32)cc1`, the melting point lay in the range of 178 to 180 °C. For `COC(=O)C1CCC2C3CCC4CC(O)C(OC)CC4(C)C3C(N)CC12C` (centres undefined) the value was 177 to 184 °C.

`Cc1c(Nc2c(C#N)cncc2-c2nccs2)ccc2[nH]ccc12` returned a melting point of 245 to 247 °C. In the case of `CCOC(=O)NC1CCCCn2c1nc(-c1ccncn1)c(Br)c2=O` (racemic) it was 72 to 74 °C. `N#Cc1c(O)ccc2ccccc12` registered a melting point of 160 to 161 °C. For the compound `Cc1ccsc1C(=O)NP(N)(N)=O`, the melting point was in the range of 267 to 275 °C. In the case of `CN(C)C1N(C(=O)c2ccccc2)N=C2c3ccccc3SN21` (centres undefined) it was 155 to 156 °C; in that of `COc1cc(-c2cc(O)c(SCc3ccccc3)c(=O)o2)cc(OC)c1OC`, 156 to 157 °C; in that of `O=[N+]([O-])c1cc(Cl)cc(C(Cl)c2cc(Cl)cc([N+](=O)[O-])c2O)c1O`, 180 °C. In the case of `N#Cc1nn(-c2c(Cl)cc(C(F)(F)F)cc2Cl)c(N)c1C1CC1(Br)Br` (centres undefined) it was 178 to 179 °C. For `CCCCCCCCCCCCCCCC(=O)NC#N` the value was 62 to 65 °C; for `Nc1cc(Oc2ccc(NC(=O)Nc3ccc(-c4cccnc4)c(C(F)(F)F)c3)cc2)ncn1`, 132 to 135 °C. For the compound `O=C1c2ccc(F)cc2C(=O)N1c1ccc(Cl)cc1F`, the melting point fell in the range of 122 to 123 °C. In the case of `CNC(=O)N(C)c1nnc(C(C)(C)CCl)s1` it was 159 to 161 °C; in that of `CN(O)C(=O)NCCc1cccc(Oc2ccccc2)c1`, 84.5 to 86 °C. In the case of `CSc1nccn1NCc1cc(C(C)(C)C)c(O)c(C(C)(C)C)c1`, the melting point is 110 to 113 °C.

`COc1ccc(C(=O)Nc2ccc3ccc(Oc4ccccc4OC)nc3n2)cc1` returned a melting point of 168 to 170 °C.
